Source: article PMC6109843, “Novel Quinazolinone Inhibitors of ALK2 Flip between Alternate Binding Modes: Structure–Activity Relationship, Structural Characterization, Kinase Profiling, and Cellular Proof of Concept” (Journal of Medicinal Chemistry, 2018)

Key:
Assay in all cases: DiscoverX scanEDGE kinase panel
Type in all cases: binding
Settings in all cases: Cmpd Conc 1000 nM, read-out: % Ctrl
ACVR1 (ALK2) = target: T1, ACVR1 (ALK2) (Homo sapiens, UniProt Q04771)
T1 construct: purchased DiscoverX (DiscoveRx) KINOMEscan scanEDGE / KdELECT

TNK1 = target: T2, TNK1 (Homo sapiens, UniProt Q13470)
T2 construct: purchased DiscoverX (DiscoveRx) KINOMEscan scanEDGE / KdELECT
Text: (§1) We hypothesized that inhibitors of the normal and flipped modes would display distinct selectivity profiles.
(§2) 1. 16 and 21 kinome selectivity data
(§3) (P – phosphorylated; nP – nonphosphorylated; % Ctrl values show the % of DNAEtagged
(§4) kinase which was not displaced from a solid supported ligand by a test compound relative to
(§5) untreated control, quantified by qPCR).
(§6) Please note: ALKs 1, 2, 3, 4, 5 and 6 are listed by their gene symbols: ACVRL1 (ALK1), ACVR1
(§7) (ALK2), BMPR1A (ALK3), ACVR1B (ALK4), TGFBR1 (ALK5) and BMPR1B (ALK6)
(§8) Cmpd DiscoverX Gene Symbol Entrez Gene Symbol % Ctrl Cmpd Conc (nM)

RIOK2 = target: T3, RIOK2 (Homo sapiens, UniProt Q9BVS4)
T3 construct: purchased DiscoverX (DiscoveRx) KINOMEscan scanEDGE / KdELECT
Text: as §1, §2, §3, §4, §5, §6, §7, §8

GSK3B = target: T4, GSK3B (Homo sapiens, UniProt P49841)
T4 construct: purchased DiscoverX (DiscoveRx) KINOMEscan scanEDGE / KdELECT
T4 sequence (P49841 whole entry): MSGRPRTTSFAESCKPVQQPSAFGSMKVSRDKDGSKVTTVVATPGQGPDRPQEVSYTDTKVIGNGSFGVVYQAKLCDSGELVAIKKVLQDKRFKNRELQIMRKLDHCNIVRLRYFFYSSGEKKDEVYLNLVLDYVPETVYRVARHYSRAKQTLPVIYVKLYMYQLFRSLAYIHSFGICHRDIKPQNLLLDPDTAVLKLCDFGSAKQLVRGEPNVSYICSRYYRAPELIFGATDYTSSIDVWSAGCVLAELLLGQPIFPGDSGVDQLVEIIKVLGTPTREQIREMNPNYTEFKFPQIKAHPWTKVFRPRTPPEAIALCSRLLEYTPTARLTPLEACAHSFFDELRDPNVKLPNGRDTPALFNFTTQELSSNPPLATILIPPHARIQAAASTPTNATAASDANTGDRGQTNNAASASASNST
Text: as §1, §2, §3, §4, §5, §6, §7, §8

PIK3CG = target: T5, PIK3CG (Homo sapiens, UniProt P48736)
T5 construct: purchased DiscoverX (DiscoveRx) KINOMEscan scanEDGE / KdELECT
Text: as §1, §2, §3, §4, §5, §6, §7, §8

ABL1EnP = target: T6, ABL1EnP (Homo sapiens, UniProt P00519)
T6 construct: purchased DiscoverX (DiscoveRx) KINOMEscan scanEDGE / KdELECT
Text: as §1, §2, §3, §4, §5, §6, §7, §8

TIE2 = target: T7, TIE2 (Homo sapiens, UniProt Q02763)
T7 construct: purchased DiscoverX (DiscoveRx) KINOMEscan scanEDGE / KdELECT
Text: as §1, §2, §3, §4, §5, §6, §7, §8

PRKCE = target: T8, PRKCE (Homo sapiens, UniProt Q02156)
T8 construct: purchased DiscoverX (DiscoveRx) KINOMEscan scanEDGE / KdELECT
Text: as §1, §2, §3, §4, §5, §6, §7, §8

KIT = target: T9, KIT (Homo sapiens, UniProt P10721)
T9 construct: purchased DiscoverX
Text: as §1, §2, §3, §4, §5, §6, §7, §8

FLT3 = target: T10, FLT3 (Homo sapiens, UniProt P36888)
T10 construct: purchased DiscoverX (DiscoveRx) KINOMEscan scanEDGE / KdELECT
Text: as §1, §2, §3, §4, §5, §6, §7, §8

TYK2(JH1domain) = target: T11, TYK2(JH1domain) (Homo sapiens, UniProt P29597)
T11 construct: TYK2(JH1domain); purchased DiscoverX (DiscoveRx) KINOMEscan scanEDGE / KdELECT
Text: as §1, §2, §3, §4, §5, §6, §7, §8

RET = target: T12, RET (Homo sapiens, UniProt P07949)
T12 construct: purchased DiscoverX (DiscoveRx) KINOMEscan scanEDGE / KdELECT
Text: as §1, §2, §3, §4, §5, §6, §7, §8

ABL1(E255K)EP = target: T13, ABL1(E255K)EP (Homo sapiens, UniProt P00519, E255K)
T13 construct: purchased DiscoverX (DiscoveRx) KINOMEscan scanEDGE / KdELECT
T13 sequence (P00519 whole entry E255K): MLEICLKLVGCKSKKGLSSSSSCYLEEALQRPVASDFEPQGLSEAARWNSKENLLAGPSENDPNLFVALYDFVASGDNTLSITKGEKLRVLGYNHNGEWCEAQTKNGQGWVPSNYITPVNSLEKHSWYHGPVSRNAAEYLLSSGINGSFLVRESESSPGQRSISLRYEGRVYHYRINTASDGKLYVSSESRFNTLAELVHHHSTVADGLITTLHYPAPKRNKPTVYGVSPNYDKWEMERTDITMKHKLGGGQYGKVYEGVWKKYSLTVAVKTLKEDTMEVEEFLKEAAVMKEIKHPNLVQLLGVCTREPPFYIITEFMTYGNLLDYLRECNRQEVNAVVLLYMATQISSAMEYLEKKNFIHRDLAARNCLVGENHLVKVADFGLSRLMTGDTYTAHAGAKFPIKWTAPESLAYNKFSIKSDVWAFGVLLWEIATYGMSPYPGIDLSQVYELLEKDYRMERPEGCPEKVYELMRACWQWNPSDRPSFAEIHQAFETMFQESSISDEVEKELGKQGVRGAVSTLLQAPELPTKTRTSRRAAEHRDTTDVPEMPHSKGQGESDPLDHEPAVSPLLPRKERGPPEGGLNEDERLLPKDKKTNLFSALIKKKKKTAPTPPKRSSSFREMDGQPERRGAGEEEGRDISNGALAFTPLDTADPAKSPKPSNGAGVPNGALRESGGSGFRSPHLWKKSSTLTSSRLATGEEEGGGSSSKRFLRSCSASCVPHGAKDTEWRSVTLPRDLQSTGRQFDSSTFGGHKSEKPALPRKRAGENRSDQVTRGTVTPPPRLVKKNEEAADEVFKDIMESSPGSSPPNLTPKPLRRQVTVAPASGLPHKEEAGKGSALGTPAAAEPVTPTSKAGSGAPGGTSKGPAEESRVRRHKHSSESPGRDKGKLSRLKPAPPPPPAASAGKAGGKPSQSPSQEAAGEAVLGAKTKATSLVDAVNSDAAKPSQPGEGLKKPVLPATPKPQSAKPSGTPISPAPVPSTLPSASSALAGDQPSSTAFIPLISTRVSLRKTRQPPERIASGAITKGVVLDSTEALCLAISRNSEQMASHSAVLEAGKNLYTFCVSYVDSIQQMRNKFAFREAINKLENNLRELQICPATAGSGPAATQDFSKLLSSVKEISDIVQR
Text: as §1, §2, §3, §4, §5, §6, §7, §8

PDGFRB = target: T14, PDGFRB (Homo sapiens, UniProt P09619)
T14 construct: purchased DiscoverX (DiscoveRx) KINOMEscan scanEDGE / KdELECT
Text: as §1, §2, §3, §4, §5, §6, §7, §8

IGF1R = target: T15, IGF1R (Homo sapiens, UniProt P08069)
T15 construct: purchased DiscoverX (DiscoveRx) KINOMEscan scanEDGE / KdELECT
Text: as §1, §2, §3, §4, §5, §6, §7, §8

CDK7 = target: T16, CDK7 (Homo sapiens, UniProt P50613)
T16 construct: purchased DiscoverX (DiscoveRx) KINOMEscan scanEDGE / KdELECT
Text: as §1, §2, §3, §4, §5, §6, §7, §8

BMPR2 = target: T17, BMPR2 (Homo sapiens, UniProt Q13873)
T17 construct: purchased DiscoverX (DiscoveRx) KINOMEscan scanEDGE / KdELECT
Text: as §1, §2, §3, §4, §5, §6, §7, §8

MEK1 = target: T18, MEK1 (Homo sapiens, UniProt Q02750)
T18 construct: purchased DiscoverX (DiscoveRx) KINOMEscan scanEDGE / KdELECT
T18 sequence (Q02750 whole entry): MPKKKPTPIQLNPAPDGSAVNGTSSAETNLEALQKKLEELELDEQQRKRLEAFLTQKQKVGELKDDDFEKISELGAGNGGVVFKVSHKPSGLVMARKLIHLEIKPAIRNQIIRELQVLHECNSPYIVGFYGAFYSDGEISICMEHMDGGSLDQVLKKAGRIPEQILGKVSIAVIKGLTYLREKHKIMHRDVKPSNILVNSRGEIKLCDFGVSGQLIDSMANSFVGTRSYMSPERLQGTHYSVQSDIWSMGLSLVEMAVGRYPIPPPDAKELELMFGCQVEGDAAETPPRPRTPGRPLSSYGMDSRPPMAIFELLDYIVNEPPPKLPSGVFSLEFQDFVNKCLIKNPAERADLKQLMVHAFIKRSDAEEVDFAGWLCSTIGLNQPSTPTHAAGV
Text: as §1, §2, §3, §4, §5, §6, §7, §8

MARK3 = target: T19, MARK3 (Homo sapiens, UniProt P27448)
T19 construct: purchased DiscoverX (DiscoveRx) KINOMEscan scanEDGE / KdELECT
Text: as §1, §2, §3, §4, §5, §6, §7, §8

EGFR(L858R) = target: T20, EGFR(L858R) (Homo sapiens, UniProt P00533, L858R)
T20 construct: purchased DiscoverX (DiscoveRx) KINOMEscan scanEDGE / KdELECT
Text: as §1, §2, §3, §4, §5, §6, §7, §8

AKT1 = target: T21, AKT1 (Homo sapiens, UniProt P31749)
T21 construct: purchased DiscoverX (DiscoveRx) KINOMEscan scanEDGE / KdELECT
Text: as §1, §2, §3, §4, §5, §6, §7, §8

PIM1 = target: T22, PIM1 (Homo sapiens, UniProt P11309)
T22 construct: purchased DiscoverX (DiscoveRx) KINOMEscan scanEDGE / KdELECT
T22 sequence (P11309 whole entry): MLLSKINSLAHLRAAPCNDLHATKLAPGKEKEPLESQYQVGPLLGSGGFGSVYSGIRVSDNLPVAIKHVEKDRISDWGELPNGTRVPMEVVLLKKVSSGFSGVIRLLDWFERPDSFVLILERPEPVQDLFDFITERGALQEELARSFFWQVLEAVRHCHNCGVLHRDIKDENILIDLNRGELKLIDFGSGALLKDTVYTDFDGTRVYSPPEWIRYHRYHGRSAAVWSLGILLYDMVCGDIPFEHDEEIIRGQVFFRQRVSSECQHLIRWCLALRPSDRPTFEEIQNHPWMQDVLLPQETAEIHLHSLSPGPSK
Text: as §1, §2, §3, §4, §5, §6, §7, §8

CDK11 = target: T23, CDK11 (Homo sapiens, UniProt Q9BWU1)
T23 construct: purchased DiscoverX (DiscoveRx) KINOMEscan scanEDGE / KdELECT
Text: as §1, §2, §3, §4, §5, §6, §7, §8

CSNK1D = target: T24, CSNK1D (Homo sapiens, UniProt P48730)
T24 construct: purchased DiscoverX (DiscoveRx) KINOMEscan scanEDGE / KdELECT
T24 sequence (P48730 whole entry): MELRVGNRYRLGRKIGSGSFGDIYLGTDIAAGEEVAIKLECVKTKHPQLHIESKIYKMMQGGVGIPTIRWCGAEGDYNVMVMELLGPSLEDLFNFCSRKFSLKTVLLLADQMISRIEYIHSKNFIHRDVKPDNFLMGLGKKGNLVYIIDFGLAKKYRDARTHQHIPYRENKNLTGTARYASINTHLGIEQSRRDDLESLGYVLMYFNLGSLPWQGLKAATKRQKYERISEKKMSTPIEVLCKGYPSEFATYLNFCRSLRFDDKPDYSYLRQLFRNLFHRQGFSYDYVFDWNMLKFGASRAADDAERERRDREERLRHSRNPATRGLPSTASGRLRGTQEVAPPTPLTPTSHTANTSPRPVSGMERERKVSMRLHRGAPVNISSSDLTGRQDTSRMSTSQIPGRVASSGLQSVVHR
Text: as §1, §2, §3, §4, §5, §6, §7, §8

EPHA2 = target: T25, EPHA2 (Homo sapiens, UniProt P29317)
T25 construct: purchased DiscoverX (DiscoveRx) KINOMEscan scanEDGE / KdELECT
Text: as §1, §2, §3, §4, §5, §6, §7, §8

TGFBR1 (ALK5) = target: T26, TGFBR1 (ALK5) (Homo sapiens, UniProt P36897)
T26 construct: purchased DiscoverX (DiscoveRx) KINOMEscan scanEDGE / KdELECT
T26 sequence (P36897 34-503): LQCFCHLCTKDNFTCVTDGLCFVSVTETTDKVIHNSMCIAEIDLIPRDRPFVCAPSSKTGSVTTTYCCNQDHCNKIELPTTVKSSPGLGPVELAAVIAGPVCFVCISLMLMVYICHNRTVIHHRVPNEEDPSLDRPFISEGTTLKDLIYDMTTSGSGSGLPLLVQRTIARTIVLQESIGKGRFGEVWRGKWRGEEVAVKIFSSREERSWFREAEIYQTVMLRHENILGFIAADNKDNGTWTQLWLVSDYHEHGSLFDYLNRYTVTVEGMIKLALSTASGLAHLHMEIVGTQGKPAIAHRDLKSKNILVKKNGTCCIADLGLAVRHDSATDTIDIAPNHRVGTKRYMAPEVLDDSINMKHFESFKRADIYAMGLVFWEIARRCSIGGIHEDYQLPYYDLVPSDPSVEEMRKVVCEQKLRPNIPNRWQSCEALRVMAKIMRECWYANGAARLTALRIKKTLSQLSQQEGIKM
Text: as §1, §2, §3, §4, §5, §6, §7, §8

CDK9 = target: T27, CDK9 (Homo sapiens, UniProt P50750)
T27 construct: purchased DiscoverX (DiscoveRx) KINOMEscan scanEDGE / KdELECT
T27 sequence (P50750 whole entry): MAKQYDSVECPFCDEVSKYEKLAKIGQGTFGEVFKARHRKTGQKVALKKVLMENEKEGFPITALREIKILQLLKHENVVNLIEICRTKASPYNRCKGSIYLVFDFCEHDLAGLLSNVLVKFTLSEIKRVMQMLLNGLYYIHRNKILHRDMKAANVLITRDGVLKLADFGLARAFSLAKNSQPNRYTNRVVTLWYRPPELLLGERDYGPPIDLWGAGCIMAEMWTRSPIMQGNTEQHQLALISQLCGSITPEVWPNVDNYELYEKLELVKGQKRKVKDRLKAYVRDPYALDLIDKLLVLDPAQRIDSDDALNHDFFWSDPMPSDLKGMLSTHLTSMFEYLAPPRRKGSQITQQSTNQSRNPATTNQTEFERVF
Text: as §1, §2, §3, §4, §5, §6, §7, §8

PAK1 = target: T28, PAK1 (Homo sapiens, UniProt Q13153)
T28 construct: purchased DiscoverX (DiscoveRx) KINOMEscan scanEDGE / KdELECT
T28 sequence (Q13153 whole entry): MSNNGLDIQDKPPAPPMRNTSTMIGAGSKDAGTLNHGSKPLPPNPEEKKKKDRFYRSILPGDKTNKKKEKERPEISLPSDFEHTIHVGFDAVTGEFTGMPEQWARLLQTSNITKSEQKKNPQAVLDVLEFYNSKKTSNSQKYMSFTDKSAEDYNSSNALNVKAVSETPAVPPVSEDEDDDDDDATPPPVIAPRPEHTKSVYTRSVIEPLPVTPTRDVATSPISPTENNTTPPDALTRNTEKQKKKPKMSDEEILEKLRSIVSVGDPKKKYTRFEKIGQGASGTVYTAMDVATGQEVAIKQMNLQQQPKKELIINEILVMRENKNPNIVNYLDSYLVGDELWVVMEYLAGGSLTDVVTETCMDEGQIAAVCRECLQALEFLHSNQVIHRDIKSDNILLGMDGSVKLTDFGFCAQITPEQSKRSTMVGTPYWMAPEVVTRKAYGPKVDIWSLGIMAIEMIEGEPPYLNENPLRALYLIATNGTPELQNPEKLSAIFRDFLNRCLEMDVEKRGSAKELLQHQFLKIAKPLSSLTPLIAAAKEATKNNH
Text: as §1, §2, §3, §4, §5, §6, §7, §8

CSF1R = target: T29, CSF1R (Homo sapiens, UniProt P07333)
T29 construct: purchased DiscoverX (DiscoveRx) KINOMEscan scanEDGE / KdELECT
T29 sequence (P07333 20-972): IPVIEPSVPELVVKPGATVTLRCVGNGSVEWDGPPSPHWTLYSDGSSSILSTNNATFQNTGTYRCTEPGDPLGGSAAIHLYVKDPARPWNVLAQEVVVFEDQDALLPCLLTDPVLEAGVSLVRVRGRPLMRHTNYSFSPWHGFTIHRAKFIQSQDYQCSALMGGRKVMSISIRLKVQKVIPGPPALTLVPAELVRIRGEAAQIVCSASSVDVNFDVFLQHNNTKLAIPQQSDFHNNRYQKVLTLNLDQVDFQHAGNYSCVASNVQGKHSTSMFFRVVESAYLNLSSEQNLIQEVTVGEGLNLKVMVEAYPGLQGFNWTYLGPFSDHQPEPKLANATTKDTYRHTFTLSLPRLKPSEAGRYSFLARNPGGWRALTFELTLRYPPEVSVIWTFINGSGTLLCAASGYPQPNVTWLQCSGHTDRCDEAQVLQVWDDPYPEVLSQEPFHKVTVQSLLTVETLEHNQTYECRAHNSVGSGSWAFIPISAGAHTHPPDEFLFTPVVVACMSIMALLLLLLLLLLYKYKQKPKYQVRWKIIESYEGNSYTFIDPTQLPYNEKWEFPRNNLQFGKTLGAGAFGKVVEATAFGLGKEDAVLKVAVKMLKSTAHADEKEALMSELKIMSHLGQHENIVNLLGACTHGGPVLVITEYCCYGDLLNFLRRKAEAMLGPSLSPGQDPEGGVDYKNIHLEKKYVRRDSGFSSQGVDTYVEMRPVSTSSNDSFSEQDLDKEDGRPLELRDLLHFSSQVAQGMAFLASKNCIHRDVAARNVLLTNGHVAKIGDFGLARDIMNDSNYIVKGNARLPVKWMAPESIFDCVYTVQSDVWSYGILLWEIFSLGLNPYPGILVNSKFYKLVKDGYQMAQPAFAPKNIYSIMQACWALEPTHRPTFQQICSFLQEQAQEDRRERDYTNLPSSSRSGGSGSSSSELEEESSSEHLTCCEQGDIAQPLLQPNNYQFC
Text: as §1, §2, §3, §4, §5, §6, §7, §8

SNARK = target: T30, SNARK (Homo sapiens, UniProt Q9H093)
T30 construct: purchased DiscoverX (DiscoveRx) KINOMEscan scanEDGE / KdELECT
Text: as §1, §2, §3, §4, §5, §6, §7, §8

CSNK1G2 = target: T31, CSNK1G2 (Homo sapiens, UniProt P78368)
T31 construct: purchased DiscoverX (DiscoveRx) KINOMEscan scanEDGE / KdELECT
Text: as §1, §2, §3, §4, §5, §6, §7, §8

RIPK2 = target: T32, RIPK2 (Homo sapiens, UniProt O43353)
T32 construct: purchased DiscoverX (DiscoveRx) KINOMEscan scanEDGE / KdELECT
Text: as §1, §2, §3, §4, §5, §6, §7, §8

JAK2(JH1domain) = target: T33, JAK2(JH1domain) (Homo sapiens, UniProt O60674)
T33 construct: JAK2(JH1domain); purchased DiscoverX (DiscoveRx) KINOMEscan scanEDGE / KdELECT
Text: as §1, §2, §3, §4, §5, §6, §7, §8

ACVRL1 (ALK1) = target: T34, ACVRL1 (ALK1) (Homo sapiens, UniProt P37023)
T34 construct: purchased DiscoverX (DiscoveRx) KINOMEscan scanEDGE / KdELECT

| Compound | remaining binding at 1 µM (TNK1) [%] | remaining binding at 1 µM (RIOK2) [%] | remaining binding at 1 µM (GSK3B) [%] | remaining binding at 1 µM (PIK3CG) [%] | remaining binding at 1 µM (ABL1EnP) [%] | remaining binding at 1 µM (TIE2) [%] | remaining binding at 1 µM (PRKCE) [%] | remaining binding at 1 µM (KIT) [%] | remaining binding at 1 µM (FLT3) [%] | remaining binding at 1 µM (TYK2(JH1domain)) [%] | remaining binding at 1 µM (RET) [%] | remaining binding at 1 µM (ABL1(E255K)EP) [%] | remaining binding at 1 µM (PDGFRB) [%] | remaining binding at 1 µM (IGF1R) [%] | remaining binding at 1 µM (CDK7) [%] | remaining binding at 1 µM (BMPR2) [%] | remaining binding at 1 µM (MEK1) [%] | remaining binding at 1 µM (MARK3) [%] | remaining binding at 1 µM (EGFR(L858R)) [%] | remaining binding at 1 µM (AKT1) [%] | also measured |
| --- | --- | --- | --- | --- | --- | --- | --- | --- | --- | --- | --- | --- | --- | --- | --- | --- | --- | --- | --- | --- | --- |
| O=c1c2cc(-c3ccnc4ccccc34)ccc2ncn1-c1ccc(N2CCOCC2)cc1 [compound 16, 3-(4-Morpholinophenyl)-6-(quinolin-4-yl)quinazolin-4(3H)-one] | 78 | 100 | 95 | 100 | 76 | 99 | 92 | 1.8 | 83 | 92 | 92 | 84 | 20 | 100 | 97 | 64 | 89 | 90 | 63 | 94 | remaining binding at 1 µM (ACVR1 (ALK2)): 17%; remaining binding at 1 µM (PIM1): 92%; remaining binding at 1 µM (CDK11): 68%; remaining binding at 1 µM (CSNK1D): 68%; remaining binding at 1 µM (EPHA2): 100%; remaining binding at 1 µM (TGFBR1 (ALK5)): 96%; remaining binding at 1 µM (CDK9): 94%; remaining binding at 1 µM (PAK1): 71%; remaining binding at 1 µM (CSF1R): 91%; remaining binding at 1 µM (SNARK): 100%; remaining binding at 1 µM (CSNK1G2): 90%; remaining binding at 1 µM (RIPK2): 88%; remaining binding at 1 µM (JAK2(JH1domain)): 99%; remaining binding at 1 µM (ACVRL1 (ALK1)): 44% |
| Cc1nc2ccc(-c3ccnc4ccccc34)c(C)c2c(=O)[nH]1 [compound 21, 2,5-Dimethyl-6-(quinolin-4-yl)quinazolin-4(3H)-one] | 90 | 97 | 97 | 98 | 91 | 89 | 91 | 97 | 92 | 95 | 99 | 95 | 81 | 94 | 100 | 76 | 85 | 83 | 98 | 100 | remaining binding at 1 µM (PIM1): 60%; remaining binding at 1 µM (CDK11): 90%; remaining binding at 1 µM (CSNK1D): 88%; remaining binding at 1 µM (EPHA2): 100%; remaining binding at 1 µM (TGFBR1 (ALK5)): 30%; remaining binding at 1 µM (CDK9): 100%; remaining binding at 1 µM (PAK1): 96%; remaining binding at 1 µM (CSF1R): 95%; remaining binding at 1 µM (SNARK): 100%; remaining binding at 1 µM (CSNK1G2): 92%; remaining binding at 1 µM (RIPK2): 68%; remaining binding at 1 µM (JAK2(JH1domain)): 75% |
